In PMC5056344, “Highly Efficient and Stable Novel NanoBiohybrid Catalyst to Avert 3,4-Dihydroxybenzoic Acid Pollutant in Water” (Scientific Reports, 2016):

Test system: T1, protocatechuate 3,4-dioxygenase (3,4-POD)
T1 construct: gene pcaG; 700 kDa; (alpha-beta)n, n = 2-12, non-heme Fe(III); free enzyme
Assay: disappearance of […],4-DHBA at […] nm; non-linear Michaelis-Menten fit
Type: biochemical, Pseudomonas sp.
Conditions: free enzyme; 50 mM CHES, pH 9.0, 55 °C; 3,4-DHBA 1–200 μM

O=C(O)c1ccc(O)c(O)c1 [3,4-dihydroxybenzoic acid]
Km: 37 ± 15 µM
